Values quoted from earlier work in US20090098202A1, “Extended Release Formulation” (BOEHRINGER INGELHEIM INTERNATIONAL GMBH, priority 2006, published 2009).
Structures can show the parent of a compound that is named as a salt.

Assays:
[1] = not given; remark: listed apart in the source
[2] = in the elderly

Structure (SMILES) | solubility in buffer media (between pH 2 and pH 7.4) | Water solubility (water) | stability in solution ([1]; in solution, light) | stability in the solid state ([1]; solid state) | elimination half-life (t1/2[h]) [2] [h]
CCCN[C@H]1CCc2nc(N)sc2C1 [Pramipexole dihydrochloride monohydrate, pramipexole dihydrochloride monohydrate] | above 10 mg/ml | more than 20 mg/ml |  |  | 
CCCN[C@H]1CCc2nc(N)sc2C1 [Pramipexole, (S)-2-Amino-4,5,6,7-tetrahydro-6-(propylamino)benzothiazole] |  |  | light sensitive | very stable | 12
